Reference: patent US20230092679A1, “MCL-1 INHIBITOR ANTIBODY-DRUG CONJUGATES AND METHODS OF USE” (NOVARTIS AG, priority 2019, published 2023)

Tests used:
KMS21 BM cells [1] = assay: CTG cell viability assay, KMS21 BM cells; format: cell-based; settings: FIG. 18
Description: Cell viability may also be measured, e.g., by quantifying ATP, an indicator of metabolically active cells. In some embodiments, in vitro potency and/or cell viability of prepared ADCs or Mcl-1 inhibitor compounds may be assessed using a CellTiter-Glo® (CTG) cell viability assay, as described in the examples provided herein. In this assay, in some embodiments, the single reagent (CellTiter-Glo® Reagent) is added directly to cells cultured in serum-supplemented medium. The addition of reagent results in cell lysis and generation of a luminescent signal proportional to the amount of ATP present. The amount of ATP is directly proportional to the number of cells present in culture

KMS21 BM cells [2] = assay: Cell viability CTG assay, anti-CD46-Mcl-1 ADC (Example 14); format: cell-based; settings: 72h
Description: KMS21 BM cells were cultivated in RPM11640 supplemented with 10% heat inactivated fetal bovine serum, penicillin (100 IU/ml), streptomycin (100 μg/ml) and L-glutamine (2 mM), at 37° C. in a humidified atmosphere containing 5% CO2. KMS21 BM cells were seeded in 96 microwell plates and exposed to the ADCs for 72h (3.16 fold serially diluted; 9 concentrations each, triplicates). […] All the conditions were tested in triplicates. Luminescence was quantified on a multipurpose plate reader. IC50s (Table 33) were calculated using standard four-parametric curve fitting. […] Each experiment was performed at least twice, with results being reproducible.

COc1ccccc1-c1nccc(COc2ccccc2C[C@@H](Oc2ncnc3sc(-c4ccc(F)cc4)c(-c4ccc(OCCN5CCN(C)CC5)c(Cl)c4C)c23)C(=O)O)n1 [C1, (2R)-2-[(5Sa)-5-[3-chloro-2-methyl-4-[2-(4-methylpiperazin-1-yl)ethoxy]phenyl]-6-(4-fluorophenyl)thieno[2,3-d]pyrimidin-4-yl]oxy-3-[2-[[2-(2-methoxyphenyl)pyrimidin-4-yl]methoxy]phenyl]propanoic acid]
viability of KMS21 BM cells (KMS21 BM cells [1]): dose dependent decrease in the viability | viability of KMS21 BM cells in CTG assay, in words (KMS21 BM cells [2]; FIG. 18): dose dependent decrease in the viability | IC50 (KMS21 BM cells [2]; KMS-21BM, KMS21BM cell line, CTG): 2.31 nM
